Results published in patent US5189211A, “Sulfonamide derivatives” (Taisho Pharmaceutical Co., Ltd., priority 1990, dated 1993).
Where two headings read alike, the source gives them in different places.

Key:
[1] = system: blood platelet aggregation; test: In vitro test in rabbit: inhibition of U-46619-induced blood platelet aggregation in platelet rich plasma (thromboxane A2 antagonism); format: cell-based, male New Zealand strain house rabbits; details: rabbit PRP, U-46619 final concentration 5 μM, 37° C., 3 minutes preincubation, measured for 5 minutes, read-out: IC50 (concentration of the test drug required to bring 50% inhibition to the maximum aggregation rate)
Description: Experiment [In Vitro Test in Rabbit]
The remaining blood was centrifuged at 1500 g for 10 minutes to give platelet poor prasma (PPP). Platelet count of PRP was adjusted to 50-60×10^4 /μl by dilution of PRP by PPP.
Namely, a compound of Formula I as a test drug was dissolved in dimethyl sulfoxide and adjusted to the desired concentration with physiological saline solution.

thrombocytopenia = test: Test of acute thrombocytopenia in mice (U-46619-induced); format: in vivo, male ICR mice; details: administered peritoneally 30 seconds prior to U-46619 25 μg/kg caudal vein, platelet count 30 seconds after injection, class by dose giving more than 50% inhibition
Description: Experiment 2 [Test of Acute Thrombocytopenia in Mice]
Male ICR mice weighting 25 g were used (7-11 animals for each group).
Thrombocytopenia was induced by injection of an aggregation-inducing substance (U-46619) having thromboxane A2 -like action in amount of 25 μg/kg from the caudal vein. At 30 seconds after injection of U-46619, 20 μl of the blood was collected from the femoral artery, and the platelet counts were immediately measured by means of an automatic blood cell counter (CC-180A, made by Toa Iyoudenshi Co.).
The compound of Formula I was suspended in 5% gum arabic solution and administered peritoneally to the test animals 30 seconds prior to injection of U-46619. As a comparative drug, BM was tested as above.
The inhibition ratio of the thrombocytopenia was calculated by the proportion of the decrease ratio of platelet count of the group treated with the test drug to that of the group with 5% gum arabic solution, and the activity was determined by the following criterion.
+: More than 50% inhibition at a dose of 1.0 mg/kg
++: More than 50% inhibition at a dose of 0.3 mg/kg
+++: More than 50% inhibition at a dose of 0.1 mg/kg

[2] = Oryctolagus cuniculus, Platelet

Molecule | IC50 [1] | Activity (inhibition ratio of the thrombocytopenia) (thrombocytopenia) | IC50 [1, 2]
4-[2-(4-Methylsulfonylamino)ethylthio]phenylacetic acid [Compound No. 94] | 3100 nM |  | 
O=C(O)COc1ccc(CCNS(=O)(=O)c2ccccc2)cc1 [BM, 4-[2-(phenylsulfonylamino)ethyl]phenoxyacetic acid, reference compound] |  | + (More than 50% inhibition at a dose of 1.0 mg/kg) | 12000 nM
O=C(O)CCc1ccc(SCCNS(=O)(=O)c2ccc(Cl)cc2)cc1 [Compound No. 52, 3-{4-[2-(4-chlorophenylsulfonylamino)ethylthio]phenyl}propionic acid] |  |  | 1100 nM
Cc1ccc(S(=O)(=O)NCCSc2ccc(CCC(=O)O)cc2)cc1 [Compound No. 53, 3-{4-[2-(4-Methylphenylsulfonylamino)ethylthio]phenyl}propionic acid] |  |  | 5800 nM
O=C(O)CCc1ccc(SCCNS(=O)(=O)c2ccc(F)cc2)cc1 [Compound No. 54, 3-{4-[2-(4-Fluorophenylsulfonylamino)ethylthio]phenyl}propionic acid] |  |  | 2400 nM
O=C(O)CCc1ccc(SCCNS(=O)(=O)c2ccc(Br)cc2)cc1 [Compound No. 55, 3-{4-[2-(4-Bromophenylsulfonylamino)ethylthio]phenyl}propionic acid] |  |  | 1700 nM
CCOC(=O)COc1ccc(CSCCNS(=O)(=O)c2ccc(Cl)cc2)cc1 [Compound No. 63, Ethyl 4-[2-(4-chlorophenylsulfonylamino)ethylthiomethyl]phenoxyacetate] |  |  | 7300 nM
O=C(O)COc1c(F)cc(SCCNS(=O)(=O)c2ccccc2)cc1F [Compound No. 67, 2,6-difluoro-4-[2-(phenylsulfonylamino)ethylthio]phenoxyacetic acid] |  | + (More than 50% inhibition at a dose of 1.0 mg/kg) | 1800 nM
O=C(O)COc1c(F)cc(SCCNS(=O)(=O)c2ccc(Cl)cc2)cc1F [Compound No. 68, 2.6-Difluoro-4-[2-(4-chlorophenylsulfonylamino)ethylthio]phenoxyacetic acid] |  | +++ (More than 50% inhibition at a dose of 0.1 mg/kg) | 300 nM
Cc1ccc(S(=O)(=O)NCCSc2cc(F)c(OCC(=O)O)c(F)c2)cc1 [Compound No. 69, 2,6-Difluoro-4-[2-(4-methylphenylsulfonylamino)ethylthio]phenoxyacetic acid] |  | ++ (More than 50% inhibition at a dose of 0.3 mg/kg) | 540 nM
O=C(O)COc1ccc(SCCNS(=O)(=O)c2ccc(Cl)cc2)cc1F [Compound No. 71, 2-Fluoro-4-[2-(4-chlorophenylsulfonylamino)ethylthio]phenoxyacetic acid] |  | + (More than 50% inhibition at a dose of 1.0 mg/kg) | 1500 nM
O=C(O)COc1ccc(SCCNS(=O)(=O)c2ccc(Cl)cc2)cc1 [Compound No. 74, 4-[2-(4-Chlorophenylsulfonylamino)ethylthio]phenoxyacetic acid] |  |  | 4500 nM
O=C(O)COc1ccc(SCCNS(=O)(=O)c2ccc(Br)cc2)cc1 [Compound No. 78, 4-[2-(4-Bromophenylsulfonylamino)ethylthio]phenoxyacetic acid] |  |  | 5200 nM
O=C(O)Cc1ccc(SCCNS(=O)(=O)c2ccc(Cl)cc2)cc1 [Compound No. 93, 4-[2-(4-Chlorophenylsulfonylamino)ethylthio]phenylacetic acid] |  | + (More than 50% inhibition at a dose of 1.0 mg/kg) | 1500 nM
O=C(O)CCc1ccc(SCCNS(=O)(=O)c2ccc([N+](=O)[O-])cc2)cc1 [Compound No. 103, 3-{4-[2-(4-Nitrophenylsulfonylamino)ethylthio]phenyl}propionic acid] |  |  | 1500 nM
O=C(O)COc1ccc(SCCNS(=O)(=O)c2ccc(F)cc2)cc1F [Compound No. 105, 2-Fluoro-4-[2-(4-fluorophenylsulfonylamino)ethylthio]phenoxyacetic acid] |  |  | 4500 nM
O=C(O)COc1ccc(SCCNS(=O)(=O)c2ccc(Br)cc2)cc1F [Compound No. 106, 2-Fluoro-4-[2-(4-bromophenylsulfonylamino)ethylthio]phenoxyacetic acid] |  |  | 2000 nM
COc1ccc(S(=O)(=O)NCCSc2ccc(OCC(=O)O)c(F)c2)cc1 [Compound No. 107, 2-Fluoro-4-[2-(4-methoxyphenylsulfonylamino)ethylthio]phenoxyacetic acid] |  |  | 7400 nM
O=C(O)Cc1ccc(SCCNS(=O)(=O)c2ccc(F)cc2)cc1 [Compound No. 112, 4-[2-(4-Fluorophenylsulfonylamino)ethylthio]phenylacetic acid] |  |  | 630 nM
O=C(O)Cc1ccc(SCCNS(=O)(=O)c2ccc(Br)cc2)cc1 [Compound No. 113, 4-[2-(4-Bromophenylsulfonylamino)ethylthio]phenylacetic acid] |  |  | 300 nM
COc1ccc(S(=O)(=O)NCCSc2ccc(CC(=O)O)cc2)cc1 [Compound No. 114, 4-[2-(4-Methoxyphenylsulfonylamino)ethylthio]phenylacetic acid] |  |  | 920 nM
O=C(O)Cc1ccc(SCCNS(=O)(=O)c2ccc([N+](=O)[O-])cc2)cc1 [Compound No. 115, 4-[2-(4-Nitrophenylsulfonylamino)ethylthio]phenylacetic acid] |  |  | 930 nM
O=C(O)COc1c(F)cc(SCCNS(=O)(=O)c2ccc(F)cc2)cc1F [Compound No. 119, 2,6-Difluoro-4-[2-(4-fluorophenylsulfonylamino)ethylthio]phenoxyacetic acid] |  |  | 580 nM
O=C(O)COc1c(F)cc(SCCNS(=O)(=O)c2ccc(Br)cc2)cc1F [Compound No. 120, 2,6-Difluoro-4-[2-(4-bromophenylsulfonylamino)ethylthio]phenoxyacetic acid] |  |  | 330 nM
O=C(O)COc1c(F)cc(SCCNS(=O)(=O)c2ccc([N+](=O)[O-])cc2)cc1F [Compound No. 121, 2,6-Difluoro-4-[2-(4-nitrophenylsulfonylamino)ethylthio]phenoxyacetic acid] |  |  | 750 nM
COc1ccc(S(=O)(=O)NCCSc2cc(F)c(OCC(=O)O)c(F)c2)cc1 [Compound No. 125, 2,6-Difluoro-4-[2-(4-methoxyphenylsulfonylamino)ethylthio]phenoxyacetic acid] |  |  | 670 nM
